Values quoted from earlier work, collected in patent publication US9109266B2, “Process of producing sugar composition comprising D-psicose and D-allose via strong alkaline isomerization of D-glucose/D-fructose or alkaline pre-treatment of D-glucose/D-fructose followed by isomerization in the presence of a basic ion exchange resin” (MATSUTANI CHEMICAL INDUSTRY CO., LTD., priority 2009, dated 2015).
Like-named read-outs stand apart in the source and are kept apart here.

Legend:
[1] = non-patent reference 10 (report 4)
[2] = for Body fat decrement ratio (%) / Body weight decrement ratio (%) / Feed intake decrement ratio (%): compared with control group; for reduction of blood sugar level / reduction of insulin level: reports 1 and 2
[3] = D-psicose administration; non-patent reference 11
[4] = Report 2, D-allose at 3% in total solids
[5] = Report 1, D-psicose at 5% in total solids

O=C[C@@H](O)[C@@H](O)[C@H](O)[C@H](O)CO [D-mannose]
contribution to body weight [1]: never makes any contribution | contribution to the amount of feed intake [1]: never makes any contribution

O=C[C@H](O)[C@H](O)[C@H](O)[C@H](O)CO [D-allose]
Body fat decrement ratio (%) [2, 4]: 19% | Body weight decrement ratio (%) [2, 4]: 17% | Feed intake decrement ratio (%) [2, 4]: 8% | reduction of blood sugar level [2]: No significant reduction | reduction of insulin level [2]: No significant reduction

O=C(CO)[C@H](O)[C@H](O)[C@H](O)CO [D-psicose]
Body fat decrement ratio (%) [2, 5]: 15% | Body weight decrement ratio (%) [2, 5]: 6% | Feed intake decrement ratio (%) [2, 5]: 6% | reduction of blood sugar level [2]: No significant reduction | reduction of insulin level [2]: No significant reduction | intra-day variation of insulin level [3]: no reduction of insulin level
